Experimental data as given in ChEMBL document CHEMBL1201862, “PubChem BioAssay data set” (2004).
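Tested at 5 concentrations; 48 h exposure; 96-well plates; endpoints linearly interpolated, else capped at highest concentration. The concentration for 50% growth inhibition is given as GI50.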 The source made the active and inactive calls. No stated cut-off is given here; in the data, active = GI50 up to about 1.1 µM and inactive = higher.

Columns and labels:
Assay in all cases: NCI-60 cell line screen, 48 h
DU-145 = system: DU-145
T47D = system: T47D
SNB-19 = system: SNB-19
COLO 205 = system: COLO 205
SF-539 = system: SF-539
HOP-92 = system: HOP-92
SW-620 = system: SW-620
UACC-62 = system: UACC-62
KM12 = system: KM12
HCT-116 = system: HCT-116
OVCAR-5 = system: OVCAR-5
ACHN = system: ACHN
TK-10 = system: TK-10
SK-MEL-28 = system: SK-MEL-28
CCRF-CEM = system: CCRF-CEM
OVCAR-8 = system: OVCAR-8
MDA-N = system: MDA-N
SK-OV-3 = system: SK-OV-3
UACC-257 = system: UACC-257
NCI/ADR-RES = system: NCI/ADR-RES

Compound	GI50 (DU-145)	GI50 (T47D)	GI50 (SNB-19)	GI50 (COLO 205)	GI50 (SF-539)	GI50 (HOP-92)	GI50 (SW-620)	GI50 (UACC-62)	GI50 (KM12)	GI50 (HCT-116)	GI50 (OVCAR-5)	GI50 (ACHN)	GI50 (TK-10)	GI50 (SK-MEL-28)	GI50 (CCRF-CEM)	GI50 (OVCAR-8)	GI50 (MDA-N)	GI50 (SK-OV-3)	GI50 (UACC-257)	GI50 (NCI/ADR-RES)
CC(C)(C)C(=O)c1c(O)c2ccccc2c2ccccc2c1=O	> 100 µM (inactive)	52.1 µM (inactive)	> 100 µM (inactive)	> 100 µM (inactive)	> 100 µM (inactive)	32.4 µM (inactive)	> 100 µM (inactive)	76.4 µM (inactive)	79.3 µM (inactive)	> 100 µM (inactive)	> 100 µM (inactive)	> 100 µM (inactive)	97.5 µM (inactive)	58.7 µM (inactive)	> 100 µM (inactive)	82.6 µM (inactive)	> 100 µM (inactive)	> 100 µM (inactive)	> 100 µM (inactive)	–
C[C@]12CCC3c4ccc(O)cc4CC[C@H]3C1CC(=O)N(CCN1CCCC1)C2=O (stereo partly specified)	> 10 µM (inactive)	> 10 µM (inactive)	> 10 µM (inactive)	> 10 µM (inactive)	> 10 µM (inactive)	–	> 10 µM (inactive)	> 10 µM (inactive)	> 10 µM (inactive)	> 10 µM (inactive)	> 10 µM (inactive)	> 10 µM (inactive)	> 10 µM (inactive)	> 10 µM (inactive)	> 10 µM (inactive)	> 10 µM (inactive)	> 10 µM (inactive)	> 10 µM (inactive)	> 10 µM (inactive)	> 10 µM (inactive)
CCOC(=O)NNC(=O)NCCNC(=O)NNC(=O)OCC	> 100 µM (inactive)	> 100 µM (inactive)	> 100 µM (inactive)	> 100 µM (inactive)	> 100 µM (inactive)	–	> 100 µM (inactive)	> 100 µM (inactive)	> 100 µM (inactive)	> 100 µM (inactive)	69.3 µM (inactive)	–	> 100 µM (inactive)	> 100 µM (inactive)	> 100 µM (inactive)	> 100 µM (inactive)	> 100 µM (inactive)	> 100 µM (inactive)	> 100 µM (inactive)	> 100 µM (inactive)
C[N+]1(C(CO)Cc2c[nH]c3ccccc23)Cc2ccccc2C1 (stereo unspecified)	> 100 µM (inactive)	> 100 µM (inactive)	> 100 µM (inactive)	> 100 µM (inactive)	–	92.5 µM (inactive)	> 100 µM (inactive)	> 100 µM (inactive)	> 100 µM (inactive)	> 100 µM (inactive)	89.3 µM (inactive)	> 100 µM (inactive)	> 100 µM (inactive)	31.7 µM (inactive)	> 100 µM (inactive)	> 100 µM (inactive)	> 100 µM (inactive)	> 100 µM (inactive)	44 µM (inactive)	> 100 µM (inactive)
O=C1c2ccccc2C(=O)c2c1c1cc(O)ccc1n2Cc1ccc(Cl)cc1Cl	8.13 µM (inactive)	–	13.4 µM (inactive)	15.1 µM (inactive)	3.97 µM (inactive)	–	8.17 µM (inactive)	7.66 µM (inactive)	14.4 µM (inactive)	6.18 µM (inactive)	1.89 µM (inactive)	–	9.29 µM (inactive)	17.3 µM (inactive)	4.12 µM (inactive)	4.57 µM (inactive)	12.1 µM (inactive)	1.75 µM (inactive)	25.1 µM (inactive)	3.08 µM (inactive)
CC(=O)O[C@H]1C(=O)[C@]2(C)[C@@H](OC(=O)OCCC(O)CO)C[C@H]3OC[C@@]3(OC(C)=O)[C@H]2[C@H](OC(=O)c2ccccc2)[C@]2(O)C[C@H](OC(=O)[C@H](O)[C@@H](NC(=O)c3ccccc3)c3ccccc3)C(C)=C1C2(C)C (stereo partly specified)	0.0125 µM (active)	–	0.0445 µM (active)	< 0.01 µM (active)	< 0.01 µM (active)	8.63 µM (inactive)	< 0.0251 µM (active)	0.0108 µM (active)	< 0.01 µM (active)	< 0.01 µM (active)	0.0303 µM (active)	3.48 µM (inactive)	2.4 µM (inactive)	–	< 0.01 µM (active)	0.0463 µM (active)	< 0.01 µM (active)	0.0307 µM (active)	0.037 µM (active)	15.2 µM (inactive)
OC(C#CCN1CCCC1)(c1ccccc1)c1ccccc1Cl (stereo unspecified)	> 100 µM (inactive)	28.6 µM (inactive)	–	12.5 µM (inactive)	26.5 µM (inactive)	–	18.5 µM (inactive)	27.2 µM (inactive)	27.5 µM (inactive)	30.1 µM (inactive)	> 100 µM (inactive)	23.9 µM (inactive)	50.8 µM (inactive)	17.1 µM (inactive)	33.6 µM (inactive)	33.8 µM (inactive)	23 µM (inactive)	61 µM (inactive)	20.7 µM (inactive)	23.3 µM (inactive)
CCC[C@H](O)[C@@H](CNc1cc(NC(C)=O)nc(NC(C)=O)n1)N(Cc1ccccc1)Cc1ccccc1	61.9 µM (inactive)	–	39.3 µM (inactive)	26.3 µM (inactive)	–	34.4 µM (inactive)	> 100 µM (inactive)	18.3 µM (inactive)	11.1 µM (inactive)	16.6 µM (inactive)	27.9 µM (inactive)	19.8 µM (inactive)	20.3 µM (inactive)	42.9 µM (inactive)	> 10 µM (inactive)	13.7 µM (inactive)	47 µM (inactive)	19.8 µM (inactive)	29.2 µM (inactive)	19.3 µM (inactive)
CCOC(=O)C1(C#N)C(C#N)(C#N)C1(C#N)C#N	> 100 µM (inactive)	> 100 µM (inactive)	> 100 µM (inactive)	> 100 µM (inactive)	–	> 100 µM (inactive)	> 100 µM (inactive)	> 100 µM (inactive)	> 100 µM (inactive)	> 100 µM (inactive)	> 100 µM (inactive)	> 100 µM (inactive)	> 100 µM (inactive)	> 100 µM (inactive)	> 100 µM (inactive)	> 100 µM (inactive)	> 100 µM (inactive)	> 100 µM (inactive)	> 100 µM (inactive)	> 100 µM (inactive)
CC1(C)[C@@H](Cn2cnc3c(N)ncnc32)CC[C@@]1(C)CO	> 100 µM (inactive)	> 100 µM (inactive)	> 100 µM (inactive)	71.9 µM (inactive)	–	> 100 µM (inactive)	82.8 µM (inactive)	32 µM (inactive)	27.4 µM (inactive)	44.9 µM (inactive)	83.4 µM (inactive)	81.5 µM (inactive)	> 100 µM (inactive)	> 100 µM (inactive)	51.9 µM (inactive)	> 100 µM (inactive)	50 µM (inactive)	> 100 µM (inactive)	67.1 µM (inactive)	84.5 µM (inactive)
CC1CC(NN)=Nc2ccccc2N1 (stereo unspecified)	> 100 µM (inactive)	–	> 100 µM (inactive)	> 100 µM (inactive)	–	–	> 100 µM (inactive)	> 100 µM (inactive)	> 100 µM (inactive)	> 100 µM (inactive)	> 100 µM (inactive)	> 100 µM (inactive)	> 100 µM (inactive)	> 100 µM (inactive)	40.3 µM (inactive)	> 100 µM (inactive)	> 100 µM (inactive)	> 100 µM (inactive)	> 100 µM (inactive)	> 100 µM (inactive)
Cc1ccc(/C(=C\C(=O)C(=O)NC23CC4CC(CC(C4)C2)C3)Sc2ccccc2)cc1	> 10 µM (inactive)	> 10 µM (inactive)	–	3.5 µM (inactive)	> 10 µM (inactive)	–	> 10 µM (inactive)	–	> 10 µM (inactive)	–	> 10 µM (inactive)	> 10 µM (inactive)	> 10 µM (inactive)	> 10 µM (inactive)	4.75 µM (inactive)	> 10 µM (inactive)	> 10 µM (inactive)	> 10 µM (inactive)	> 10 µM (inactive)	> 10 µM (inactive)
Cc1cc(C)c(C(=O)c2nnc3ccccc3c2N)c(C)c1	27 µM (inactive)	16.6 µM (inactive)	35.8 µM (inactive)	15.2 µM (inactive)	–	3.65 µM (inactive)	26.7 µM (inactive)	16.4 µM (inactive)	16.4 µM (inactive)	10.3 µM (inactive)	15.8 µM (inactive)	23.1 µM (inactive)	–	17 µM (inactive)	31 µM (inactive)	–	16.7 µM (inactive)	32.4 µM (inactive)	37.9 µM (inactive)	24.3 µM (inactive)
C[C@]12C[C@@H](c3ccccc3)Nc3ccccc3N1C(c1ccccc1)=NO2	92.3 µM (inactive)	–	89.7 µM (inactive)	19 µM (inactive)	33.4 µM (inactive)	18.5 µM (inactive)	61.1 µM (inactive)	33.4 µM (inactive)	33.6 µM (inactive)	37.9 µM (inactive)	33.2 µM (inactive)	33.9 µM (inactive)	34.4 µM (inactive)	–	35.9 µM (inactive)	36.1 µM (inactive)	26.2 µM (inactive)	> 100 µM (inactive)	33.8 µM (inactive)	45.1 µM (inactive)
C[C@]12CC[C@H]3[C@@H](CCC4=C(Br)C(=O)C=C[C@@]43O)[C@@H]1CCC2=O	20.9 µM (inactive)	–	61 µM (inactive)	61 µM (inactive)	53.7 µM (inactive)	32.2 µM (inactive)	26.8 µM (inactive)	32.4 µM (inactive)	34.2 µM (inactive)	26.4 µM (inactive)	61 µM (inactive)	40.6 µM (inactive)	36.6 µM (inactive)	94.2 µM (inactive)	0.957 µM (active)	25.8 µM (inactive)	30.6 µM (inactive)	> 100 µM (inactive)	16.9 µM (inactive)	27.2 µM (inactive)
